Results: PubChem BioAssay (NCI)
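96-well plates; 48 h exposure; 5 concentrations. Endpoints by linear interpolation between flanking doses. Not reached: highest tested concentration assigned. GI50 marks 50% less growth. TGI marks complete inhibition of growth.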

Key:
Test in all cases: DTP human tumour cell line panel, 48 h
U251 CNS = tested on: U251 CNS
HT29 colon = tested on: HT29 colon
MCF7 breast = tested on: MCF7 breast
HCT-116 colon = tested on: HCT-116 colon
MALME-3M melanoma = tested on: MALME-3M melanoma
SF-268 CNS = tested on: SF-268 CNS
HOP-62 NSCLC = tested on: HOP-62 NSCLC
K-562 leukemia = tested on: K-562 leukemia
SF-295 CNS = tested on: SF-295 CNS
HOP-92 NSCLC = tested on: HOP-92 NSCLC
TK-10 renal = tested on: TK-10 renal
HL-60(TB) leukemia = tested on: HL-60(TB) leukemia
COLO 205 colon = tested on: COLO 205 colon
DU-145 prostate = tested on: DU-145 prostate
MDA-MB-435 = tested on: MDA-MB-435
ACHN renal = tested on: ACHN renal
SNB-75 CNS = tested on: SNB-75 CNS
CCRF-CEM leukemia = tested on: CCRF-CEM leukemia
SK-MEL-2 melanoma = tested on: SK-MEL-2 melanoma
HCC-2998 colon = tested on: HCC-2998 colon
M14 melanoma = tested on: M14 melanoma
RPMI-8226 leukemia = tested on: RPMI-8226 leukemia
SK-MEL-5 melanoma = tested on: SK-MEL-5 melanoma
OVCAR-3 ovarian = tested on: OVCAR-3 ovarian
KM12 colon = tested on: KM12 colon
MOLT-4 leukemia = tested on: MOLT-4 leukemia
A549 NSCLC = tested on: A549 NSCLC
SR leukemia = tested on: SR leukemia
786-0 renal = tested on: 786-0 renal
NCI-H226 lung = tested on: NCI-H226 lung
UO-31 renal = tested on: UO-31 renal
NCI-H522 lung = tested on: NCI-H522 lung
UACC-257 melanoma = tested on: UACC-257 melanoma
OVCAR-8 ovarian = tested on: OVCAR-8 ovarian
PC-3 prostate = tested on: PC-3 prostate
CAKI-1 renal = tested on: CAKI-1 renal
T-47D breast = tested on: T-47D breast
SK-MEL-28 melanoma = tested on: SK-MEL-28 melanoma
MDA-MB-468 breast = tested on: MDA-MB-468 breast
SK-OV-3 ovarian = tested on: SK-OV-3 ovarian
NCI-H460 lung = tested on: NCI-H460 lung
SN12C renal = tested on: SN12C renal
RXF 393 renal = tested on: RXF 393 renal
OVCAR-5 ovarian = tested on: OVCAR-5 ovarian
NCI/ADR-RES ovarian = tested on: NCI/ADR-RES ovarian
IGROV1 ovarian = tested on: IGROV1 ovarian
A498 renal = tested on: A498 renal
EKVX NSCLC = tested on: EKVX NSCLC
OVCAR-4 ovarian = tested on: OVCAR-4 ovarian
SNB-19 CNS = tested on: SNB-19 CNS
NCI-H23 lung = tested on: NCI-H23 lung
UACC-62 melanoma = tested on: UACC-62 melanoma
BT-549 breast = tested on: BT-549 breast
SF-539 CNS = tested on: SF-539 CNS
HCT-15 colon = tested on: HCT-15 colon

Cn1cc(-c2cc3nc(-c4cn(C)c5ncc(Br)cc45)cc(N)n3n2)c2ccccc21
GI50 (U251 CNS): 5.65 µM | TGI (U251 CNS): 27.4 µM | GI50 (HT29 colon): 5.65 µM | TGI (HT29 colon): 20.4 µM | GI50 (MCF7 breast): 5.31 µM | TGI (MCF7 breast): 27.3 µM | GI50 (HCT-116 colon): 7.98 µM | TGI (HCT-116 colon): 27.6 µM | GI50 (MALME-3M melanoma): 16.8 µM | TGI (MALME-3M melanoma): 32.7 µM | GI50 (SF-268 CNS): 13.1 µM | TGI (SF-268 CNS): 89.6 µM | GI50 (HOP-62 NSCLC): 14.8 µM | TGI (HOP-62 NSCLC): 46.5 µM | GI50 (K-562 leukemia): 2.94 µM | TGI (K-562 leukemia): > 100 µM | GI50 (SF-295 CNS): 13.5 µM | TGI (SF-295 CNS): 31.1 µM | GI50 (HOP-92 NSCLC): 4.97 µM | TGI (HOP-92 NSCLC): 25.1 µM | GI50 (TK-10 renal): 13.8 µM | TGI (TK-10 renal): 44.9 µM | GI50 (HL-60(TB) leukemia): 3.53 µM | TGI (HL-60(TB) leukemia): 32.6 µM | GI50 (COLO 205 colon): 16.8 µM | TGI (COLO 205 colon): 33.8 µM | GI50 (DU-145 prostate): 21.4 µM | TGI (DU-145 prostate): > 100 µM | GI50 (MDA-MB-435): 16.4 µM | TGI (MDA-MB-435): 34.1 µM | GI50 (ACHN renal): 13.5 µM | TGI (ACHN renal): 45.6 µM | GI50 (SNB-75 CNS): 11.9 µM | TGI (SNB-75 CNS): 58.2 µM | GI50 (CCRF-CEM leukemia): 3.52 µM | TGI (CCRF-CEM leukemia): > 100 µM | GI50 (SK-MEL-2 melanoma): 11.2 µM | TGI (SK-MEL-2 melanoma): 26.7 µM | GI50 (HCC-2998 colon): 3.74 µM | TGI (HCC-2998 colon): 13.9 µM | GI50 (M14 melanoma): 15.3 µM | TGI (M14 melanoma): 38.1 µM | GI50 (RPMI-8226 leukemia): 13.6 µM | TGI (RPMI-8226 leukemia): > 100 µM | GI50 (SK-MEL-5 melanoma): 15.1 µM | TGI (SK-MEL-5 melanoma): 28.4 µM | GI50 (OVCAR-3 ovarian): 13.5 µM | TGI (OVCAR-3 ovarian): 28.5 µM | GI50 (KM12 colon): 6.04 µM | TGI (KM12 colon): 26.7 µM | GI50 (MOLT-4 leukemia): 3.52 µM | TGI (MOLT-4 leukemia): 30.9 µM | GI50 (A549 NSCLC): 9.25 µM | TGI (A549 NSCLC): > 100 µM | GI50 (SR leukemia): 2.46 µM | TGI (SR leukemia): > 100 µM | GI50 (786-0 renal): 13.4 µM | TGI (786-0 renal): 33.3 µM | GI50 (NCI-H226 lung): 15.1 µM | TGI (NCI-H226 lung): 62.7 µM | GI50 (UO-31 renal): 13.1 µM | TGI (UO-31 renal): 45.8 µM | GI50 (NCI-H522 lung): 12.8 µM | TGI (NCI-H522 lung): 32.7 µM | GI50 (UACC-257 melanoma): 14 µM | TGI (UACC-257 melanoma): 30.4 µM | GI50 (OVCAR-8 ovarian): 21.8 µM | TGI (OVCAR-8 ovarian): 85.9 µM | GI50 (PC-3 prostate): 6.58 µM | TGI (PC-3 prostate): > 100 µM | GI50 (CAKI-1 renal): 12.7 µM | TGI (CAKI-1 renal): 48.1 µM | GI50 (T-47D breast): 7.38 µM | TGI (T-47D breast): 30.4 µM | GI50 (SK-MEL-28 melanoma): 15.2 µM | TGI (SK-MEL-28 melanoma): 29.1 µM | GI50 (MDA-MB-468 breast): 3.71 µM | TGI (MDA-MB-468 breast): 15.6 µM | GI50 (SK-OV-3 ovarian): 20.4 µM | TGI (SK-OV-3 ovarian): 59.6 µM | GI50 (NCI-H460 lung): 7.78 µM | TGI (NCI-H460 lung): 28.1 µM | GI50 (SN12C renal): 12.8 µM | TGI (SN12C renal): 27.9 µM | GI50 (RXF 393 renal): 6.13 µM | TGI (RXF 393 renal): 19.3 µM | GI50 (OVCAR-5 ovarian): 14.5 µM | TGI (OVCAR-5 ovarian): 35.1 µM | GI50 (NCI/ADR-RES ovarian): 17.4 µM | TGI (NCI/ADR-RES ovarian): 76.1 µM | GI50 (IGROV1 ovarian): 11.7 µM | TGI (IGROV1 ovarian): 32.6 µM | GI50 (A498 renal): 8.84 µM | TGI (A498 renal): 23.7 µM | GI50 (EKVX NSCLC): 10.1 µM | TGI (EKVX NSCLC): 27.1 µM | GI50 (OVCAR-4 ovarian): 17.1 µM | TGI (OVCAR-4 ovarian): 59.7 µM | GI50 (SNB-19 CNS): 17.8 µM | TGI (SNB-19 CNS): 41.9 µM | GI50 (NCI-H23 lung): 15.7 µM | TGI (NCI-H23 lung): 41.3 µM | GI50 (UACC-62 melanoma): 11.5 µM | TGI (UACC-62 melanoma): 24.8 µM | GI50 (BT-549 breast): 19.5 µM | TGI (BT-549 breast): 47.8 µM | GI50 (SF-539 CNS): 14.1 µM | TGI (SF-539 CNS): 28.7 µM | GI50 (HCT-15 colon): 2.53 µM | TGI (HCT-15 colon): 6.94 µM
